Consider one compound from PMC10770758, “Protocatechuate hydroxylase is a novel group A flavoprotein monooxygenase with a unique substrate recognition mechanism” (The Journal of Biological Chemistry, 2023).

What all share (format): binding
The target in one test is T1, OtPobA (Ottowia thiooxydans, UniProt A0ABV2Q8W8).
T1 construct: gene ABIE13_002600; codon-optimised gene in modified pET28a, His-tagged, E. coli BL21 Star (DE3), HisTrap
T1 sequence (A0ABV2Q8W8 1-392): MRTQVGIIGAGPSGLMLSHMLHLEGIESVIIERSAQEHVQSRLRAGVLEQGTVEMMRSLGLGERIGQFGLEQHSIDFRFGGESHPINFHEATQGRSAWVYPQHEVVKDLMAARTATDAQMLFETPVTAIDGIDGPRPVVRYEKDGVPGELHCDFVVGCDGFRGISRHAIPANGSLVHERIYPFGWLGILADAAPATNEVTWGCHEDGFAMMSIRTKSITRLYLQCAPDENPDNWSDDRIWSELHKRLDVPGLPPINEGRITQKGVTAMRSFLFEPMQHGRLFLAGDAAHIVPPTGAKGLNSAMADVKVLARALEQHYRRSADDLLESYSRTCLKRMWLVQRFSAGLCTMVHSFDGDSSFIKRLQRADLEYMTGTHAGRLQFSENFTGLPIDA
The test is described as follows: HPLC of heat-released flavin; absorption spectrum. Conditions: prosthetic group.

The next test has as its target T2, XaPobA (Xylophilus ampelinus, UniProt A0AAJ6N6I2).
T2 construct: gene praI; codon-optimised gene in modified pET28a, 6xHis tag, E. coli BL21 Star (DE3), HisTrap; homodimer in crystal
T2 sequence (A0AAJ6N6I2 1-391): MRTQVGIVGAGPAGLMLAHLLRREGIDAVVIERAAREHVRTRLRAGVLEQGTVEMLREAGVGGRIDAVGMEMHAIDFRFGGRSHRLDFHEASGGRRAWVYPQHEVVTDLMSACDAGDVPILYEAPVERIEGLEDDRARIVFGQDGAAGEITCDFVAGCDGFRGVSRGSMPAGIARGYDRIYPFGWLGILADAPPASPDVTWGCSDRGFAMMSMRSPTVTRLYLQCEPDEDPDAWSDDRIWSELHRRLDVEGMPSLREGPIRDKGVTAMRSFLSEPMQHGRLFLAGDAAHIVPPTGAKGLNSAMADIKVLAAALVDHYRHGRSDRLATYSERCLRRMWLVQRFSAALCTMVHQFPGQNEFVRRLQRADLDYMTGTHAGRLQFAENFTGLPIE
The experiment in a line: X-ray crystal structure; HPLC of heat-released flavin. Conditions: oxidized form, prosthetic group.

Another test has as its target T3, PkPobA (Pigmentiphaga kullae, UniProt A0A4Q7NA79).
T3 construct: gene EV675_5624; codon-optimised gene in modified pET28a, His-tagged, E. coli BL21 Star (DE3), HisTrap
T3 sequence (A0A4Q7NA79 1-391): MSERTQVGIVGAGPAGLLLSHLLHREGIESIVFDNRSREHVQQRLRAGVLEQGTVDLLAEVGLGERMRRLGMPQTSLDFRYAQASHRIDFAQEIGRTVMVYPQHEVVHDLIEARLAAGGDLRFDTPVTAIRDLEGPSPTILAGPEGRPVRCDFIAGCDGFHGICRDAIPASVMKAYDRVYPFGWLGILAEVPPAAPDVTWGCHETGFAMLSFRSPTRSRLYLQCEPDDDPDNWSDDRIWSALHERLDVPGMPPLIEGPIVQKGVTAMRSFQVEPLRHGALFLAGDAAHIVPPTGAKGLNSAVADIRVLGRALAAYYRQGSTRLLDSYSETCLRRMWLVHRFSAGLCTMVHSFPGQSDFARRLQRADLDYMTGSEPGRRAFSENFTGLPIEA
The test is described as follows: HPLC of heat-released flavin; absorption spectrum. The conditions noted are these: prosthetic group.

Regarding `Cc1cc2nc3c(=O)[nH]c(=O)nc-3n(C[C@H](O)[C@H](O)[C@H](O)COP(=O)(O)OP(=O)(O)OC[C@H]3O[C@@H](n4cnc5c(N)ncnc54)[C@H](O)[C@@H]3O)c2cc1C` [FAD, flavin adenine dinucleotide], the “HPLC of heat-released flavin; absorption spectrum” value at OtPobA is “indicating that XaPobA, OtPobA, and PkPobA use FAD as a prosthetic group”; at PkPobA, “indicating that XaPobA, OtPobA, and PkPobA use FAD as a prosthetic group”. For the same compound, the “X-ray crystal structure; HPLC of heat-released flavin” value at XaPobA was “homodimer, with each unit binding an oxidized form of FAD in its active site”.
